Experiments:
Brassica napus [1] = assay: In vivo analyses Part A: drought stress, spray application, visual damage scoring, Brassica napus
Protocol: (§1) Seeds of monocotyledonous and dicotyledonous crop plants were sown in sandy loam in wood-fiber or plastic pots, covered with soil or sand and cultivated in a greenhouse under good growth conditions. The trial plants were treated at the early leaf stage (BBCH10-BBCH13). To assure uniform water supply before commencement of stress, the potted plants were supplied with water by dam irrigation prior to substance application. The inventive compounds formulated in the form of wettable powders (WP) were sprayed onto the green parts of the plants as an aqueous suspension at an equivalent water application rate of 600 l/ha with addition of 0.2% wetting agent (e.g. agrotin). Substance application was followed immediately by stress treatment of the plants. For this purpose, the wood-fiber pots were transferred in plastic inserts in order to prevent them from subsequently drying out too quickly. Drought stress was induced by gradual drying out under the following conditions: “Day”: 14 hours with illumination at ˜26-30° C. “Night”: 10 hours without illumination at ˜18-20° C. The duration of the respective stress phases was guided mainly by the condition of the stressed control plants. It was ended (by re-irrigating and transfer to a greenhouse with good growth conditions) as soon as irreversible damage was observed on the stressed control plants. The end of the stress phase was followed by an about 4-7-day recovery phase, during which the plants were once again kept under good growth conditions in a greenhouse. The duration of the recovery phase was guided mainly by when the trial plants had attained a state which enabled visual scoring of potential effects, and is therefore variable. Once this juncture was reached, the intensities of damage were scored visually in comparison to untreated, unstressed controls of the same age. The damage intensity was at first assessed in per cent. These values were then used to calculate the efficacy of the test compounds by the following formula: [formula] EF: Efficacy DIs: Damage intensity of the stressed control plants DIt: Damage intensity of the stressed plants treated with test compound The values reported in tables A-1 to A-3 below are mean values from at least one trial with at least two repeats, showing the effects of selected compounds of the general formula (I) under drought stress on various crop plants.

Zea mays = assay: In vivo analyses Part A: drought stress, spray application, visual damage scoring, Zea mays
Protocol: as §1

Brassica napus [2] = assay: In vivo analyses Part B: drought stress, spray application, appearance vs stressed control in categories, Brassica napus; parameters: key: 0: no positive effect; +: slight positive effect; ++: clear positive effect; +++: strong positive effect
Protocol: (§2) Seeds of monocotyledonous and dicotyledonous crop plants were sown in sandy loam in plastic pots, covered with soil or sand and cultivated in a greenhouse under good growth conditions. The test plants are treated at the early leaf stage (BBCH10-BBCH13). To assure uniform water supply before commencement of stress, the potted plants were supplied with water by dam irrigation prior to substance application. The inventive compounds were first formulated as wettable powders (WP) or dissolved in a solvent mixture. The further dilution was effected with water supplemented with 0.2% wetting agent (e.g. agrotin). The finished spray liquor was sprayed onto the green parts of the plant at an equivalent water application rate of 600 l/ha. Substance application was followed immediately by stress treatment of the plants. Drought stress was induced by gradual drying out under the following conditions: “Day”: 14 hours with illumination at ˜26-30° C. “Night”: 10 hours without illumination at ˜18-20° C. The duration of the respective stress phases was guided mainly by the condition of the stressed control plants. It was ended (by re-irrigating and transfer to a greenhouse with good growth conditions) as soon as irreversible damage was observed on the stressed control plants. The end of the stress phase was followed by an about 4-7-day recovery phase, during which the plants were once again kept under good growth conditions in a greenhouse. The duration of the recovery phase was guided mainly by when the trial plants had attained a state which enabled visual scoring of potential effects, and was therefore variable. Once this juncture had been reached, the appearance of the plants treated with test substances was recorded in comparison to the stressed control plants by the following categories: • 0 no positive effect • + slight positive effect • ++ clear positive effect • +++ strong positive effect In order to rule out any influence on the effects observed by any fungicidal or insecticidal action of the test compounds, it was additionally ensured that the tests proceeded without fungal infection or insect infestation. The values reported in tables B-1 and B-2 below are mean values of the results from at least three repeats. Effects of selected compounds of the general formula (I) under drought stress according to the following tables B-1 and B-2: […]

Triticum aestivum [3] = assay: In vivo analyses Part B: drought stress, spray application, appearance vs stressed control in categories, Triticum aestivum; parameters: key: 0: no positive effect; +: slight positive effect; ++: clear positive effect; +++: strong positive effect
Protocol: as §2

Triticum aestivum [4] = assay: In vivo analyses Part A: drought stress, spray application, visual damage scoring, Triticum aestivum
Protocol: as §1

SMILES: CN(C)N(Cc1ccc(Cl)cc1)C(=O)c1ccc(Cl)cc1 [A9-3]
- EF [%] (BRSNS) (Brassica napus [1]; dosage 250 g/ha): >5%
- EF [%] (ZEAMX) (Zea mays; dosage 250 g/ha): >5%

SMILES: CN(C)N(Cc1cc(C(F)(F)F)ccc1Cl)C(=O)c1ccccn1 [D1-86]
- EF [%] (BRSNS) (Brassica napus [1]; dosage 25 g/ha): >5%
- EF [%] (ZEAMX) (Zea mays; dosage 250 g/ha): >5%

SMILES: CN(C)N(Cc1ccc(Cl)cc1)C(=O)c1ccncc1 [C1-3]
- EF [%] (BRSNS) (Brassica napus [1]; dosage 250 g/ha): >5%
- EF [%] (ZEAMX) (Zea mays; dosage 25 g/ha): >5%

SMILES: CN(C)N(Cc1c(F)cccc1F)C(=O)c1cnccc1C(F)(F)F [B1-17]
- Effect (BRSNS) (Brassica napus [2]; dosage 250 g/ha): ++
- Effect (TRZAS) (Triticum aestivum [3]; dosage 250 g/ha): +

SMILES: CN(C)N(Cc1ccc(Cl)cc1Cl)C(=O)c1ccc(Cl)cc1Cl [A12-5]
- EF [%] (BRSNS) (Brassica napus [1]; dosage 25 g/ha): >5%

SMILES: CN(C)N(Cc1ccccc1Cl)C(=O)c1ccccc1[N+](=O)[O-] [A32-1]
- EF [%] (ZEAMX) (Zea mays; dosage 250 g/ha): >5%

SMILES: CCN(C)N(Cc1nccc(Cl)c1Cl)C(=O)c1ccccc1C(F)(F)F [A5-40]
- Effect (BRSNS) (Brassica napus [2]; dosage 250 g/ha): +
- Effect (TRZAS) (Triticum aestivum [3]; dosage 250 g/ha): +

SMILES: CN(C)N(CCc1ccc(C(C)(C)C)cc1)C(=O)c1ccc(Cl)cc1 [A9-639]
- EF [%] (ZEAMX) (Zea mays; dosage 250 g/ha): >5%

SMILES: CN(C)N(Cc1ncc(C(F)(F)F)cc1Cl)C(=O)c1ccc(Cl)cc1C(F)(F)F [A51-36]
- Effect (BRSNS) (Brassica napus [2]; dosage 250 g/ha): +
- Effect (TRZAS) (Triticum aestivum [3]; dosage 25 g/ha): +

SMILES: Cc1c(OCC(F)(F)F)ccnc1CN(C(=O)c1ccccc1Cl)N(C)C [A10-144]
- EF [%] (TRZAS) (Triticum aestivum [4]; dosage 250 g/ha): >5%

SMILES: CN(C)N(Cc1ccccn1)C(=O)c1cccnc1C(F)(F)C(F)(F)F [B3-21]
- EF [%] (BRSNS) (Brassica napus [1]; dosage 250 g/ha): >5%
- EF [%] (ZEAMX) (Zea mays; dosage 25 g/ha): >5%

SMILES: CN(C)N(Cc1ccc(Cl)cc1Cl)C(=O)c1ccccc1I [A36-5]
- Effect (BRSNS) (Brassica napus [2]; dosage 250 g/ha): ++
- Effect (TRZAS) (Triticum aestivum [3]; dosage 250 g/ha): +

SMILES: CN(C)N(Cc1ccc(C(F)(F)F)cc1Cl)C(=O)c1ccc(F)cc1C(F)(F)F [A14-91]
- Effect (BRSNS) (Brassica napus [2]; dosage 250 g/ha): +
- Effect (TRZAS) (Triticum aestivum [3]; dosage 25 g/ha): +

SMILES: CN(C)N(Cc1ccccc1Cl)C(=O)c1cnccc1C(F)(F)F [B1-1]
- EF [%] (ZEAMX) (Zea mays; dosage 25 g/ha): >5%

SMILES: COc1cc(OC)nc(CN(C(=O)c2ccccc2Cl)N(C)C)n1 [A10-30]
- EF [%] (TRZAS) (Triticum aestivum [4]; dosage 250 g/ha): >5%

SMILES: CN(C)N(Cc1ccccc1Cl)C(=O)c1cncnc1C(F)(F)Cl [E3-1]
- Effect (BRSNS) (Brassica napus [2]; dosage 25 g/ha): +
- Effect (TRZAS) (Triticum aestivum [3]; dosage 25 g/ha): +

SMILES: COc1ccccc1C(=O)N(Cc1ccc(F)cc1F)N(C)C [A8-15]
- Effect (BRSNS) (Brassica napus [2]; dosage 250 g/ha): +
- Effect (TRZAS) (Triticum aestivum [3]; dosage 25 g/ha): ++

SMILES: Cc1ccc(C(=O)N(Cc2nccc(Cl)c2Cl)N(C)C)c(C(F)(F)F)c1 [A50-40]
- Effect (BRSNS) (Brassica napus [2]; dosage 25 g/ha): ++
- Effect (TRZAS) (Triticum aestivum [3]; dosage 250 g/ha): +

SMILES: CN(C)N(Cc1ccccc1C(F)(F)F)C(=O)c1ccccc1C(F)(F)F [A1-81]
- Effect (BRSNS) (Brassica napus [2]; dosage 25 g/ha): +
- Effect (TRZAS) (Triticum aestivum [3]; dosage 250 g/ha): +

SMILES: COc1c(C)cnc(CN(C(=O)c2ccccc2C(F)(F)F)N(C)C)c1C [A1-37]
- EF [%] (BRSNS) (Brassica napus [1]; dosage 2.5 g/ha): >5%
- EF [%] (TRZAS) (Triticum aestivum [4]; dosage 250 g/ha): >5%

SMILES: CN(C)N(Cc1ccc2ccccc2n1)C(=O)c1cc(Cl)ccc1Cl [A7-122]
- EF [%] (BRSNS) (Brassica napus [1]; dosage 25 g/ha): >5%

SMILES: CN(C)N(Cc1cccc(Cl)c1)C(=O)c1ccccc1Cl [A10-2]
- Effect (BRSNS) (Brassica napus [2]; dosage 25 g/ha): ++
- Effect (TRZAS) (Triticum aestivum [3]; dosage 250 g/ha): +

SMILES: CN(C)N(Cc1ccccc1C#N)C(=O)c1ccccc1I [A36-61]
- Effect (BRSNS) (Brassica napus [2]; dosage 250 g/ha): +
- Effect (TRZAS) (Triticum aestivum [3]; dosage 250 g/ha): +

SMILES: CN(C)N(Cc1c(Cl)cccc1Cl)C(=O)c1ccccc1C(F)(F)F [A1-7]
- EF [%] (ZEAMX) (Zea mays; dosage 250 g/ha): >5%

SMILES: CN(C)N(CCc1ccc(Cl)cc1)C(=O)c1ccc(Cl)cc1 [A9-614]
- EF [%] (BRSNS) (Brassica napus [1]; dosage 250 g/ha): >5%

SMILES: Cc1c(OCC(F)(F)F)ccnc1CN(C(=O)c1cnccc1C(F)(F)F)N(C)C [B1-144]
- EF [%] (BRSNS) (Brassica napus [1]; dosage 25 g/ha): >5%
- EF [%] (TRZAS) (Triticum aestivum [4]; dosage 25 g/ha): >5%

SMILES: COc1cc(Cl)c(CN(C(=O)c2ccccc2C(F)(F)F)N(C)C)cc1OC [A1-147]
- EF [%] (BRSNS) (Brassica napus [1]; dosage 25 g/ha): >5%
- EF [%] (ZEAMX) (Zea mays; dosage 250 g/ha): >5%

SMILES: COc1c(C)cnc(CN(C(=O)c2ccccc2Cl)N(C)C)c1C [A10-37]
- EF [%] (ZEAMX) (Zea mays; dosage 250 g/ha): >5%

SMILES: CN(C)N(CCc1cccc(Cl)c1)C(=O)c1ccccc1C(F)(F)F [A1-613]
- EF [%] (ZEAMX) (Zea mays; dosage 250 g/ha): >5%

Reference: patent US20180206495A1, “SUBSTITUTED ARYL AND HETEROARYL CARBOXYLIC ACID HYDRAZIDES OR SALTS THEREOF AND USE THEREOF TO INCREASE STRESS TOLERANCE IN PLANTS” (BAYER CROPSCIENCE AKTIENGESELLSCHAFT, priority 2015, published 2018)
